What all share (type): biochemical
For one assay, the target named is cSRC (h) (Homo sapiens, UniProt P12931). Description: Kinase profiling, glass-fiber filter technology: cSRC. Conditions: test concentration of 10^−6 M; read-out: cSRC inhibition score. The method, then: (§1) The in vitro inhibition of a panel of kinases was assessed using the glass-fiber filter technology as described by Davies, S. P. et al., Biochem J. (2000), 351; p. 95-105.
(§2) In the glass-fiber filter technology the activity of the kinase of interest is measured using an appropriate substrate that is incubated with the aforementioned kinase protein in the presence of (^33P) radiolabeled ATP. (^33P) Phosporylation of the substrate is subsequently measured as radioactivity bound on a glassfiber-filter.
(§3) All kinases are pre-diluted to a 10× working concentration prior to addition into the assay. The composition of the dilution buffer for each kinase is detailed below.
(§4) All substrates are dissolved and diluted to working stocks in de-ionised water.
(§5) In a final reaction volume of 25 μl, cSRC (h) (5-10 mU) is incubated with 8 mM MOPS pH 7.0, 0.2 mM EDTA, 250 μM KVEKIGEGTYGVVYK (Cdc2 peptide), 10 mM MgAcetate and [γ-^33P-ATP] (specific activity approx. 500 cpm/pmol, concentration as required). The reaction is initiated by the addition of the MgATP mix. After incubation for 40 minutes at room temperature, the reaction is stopped by the addition of 5 μl of a 3% phosphoric acid solution.
(§6) 10 μl of the reaction is then spotted onto a P30 filtermat and washed three times for 5 minutes in 75 mM phosphoric acid and once in methanol prior to drying and scintillation counting.

The target in a further assay is Lck (h) (Homo sapiens, UniProt P06239). As to the kind of experiment: Kinase profiling, glass-fiber filter technology: Lck. Particulars: test concentration of 10^−6 M; read-out: Lck inhibition score. The method, then: as §1, §2, §3, §4
Lck (h), sequence (P06239 whole entry): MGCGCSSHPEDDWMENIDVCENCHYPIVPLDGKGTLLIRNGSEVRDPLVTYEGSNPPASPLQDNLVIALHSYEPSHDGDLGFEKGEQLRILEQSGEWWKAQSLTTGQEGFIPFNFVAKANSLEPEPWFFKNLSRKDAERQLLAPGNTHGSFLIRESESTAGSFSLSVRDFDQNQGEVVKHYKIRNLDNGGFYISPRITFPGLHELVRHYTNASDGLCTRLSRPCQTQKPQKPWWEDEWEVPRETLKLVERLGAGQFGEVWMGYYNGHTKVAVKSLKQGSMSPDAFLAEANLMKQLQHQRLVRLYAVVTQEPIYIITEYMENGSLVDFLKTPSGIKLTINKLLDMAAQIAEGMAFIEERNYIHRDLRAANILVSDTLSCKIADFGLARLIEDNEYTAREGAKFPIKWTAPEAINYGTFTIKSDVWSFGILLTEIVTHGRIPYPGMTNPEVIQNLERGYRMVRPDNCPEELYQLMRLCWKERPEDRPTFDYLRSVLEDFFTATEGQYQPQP
(§7) In a final reaction volume of 25 μl, Lck (h) (5-10 mU) is incubated with 50 mM Tris pH 7.5, 0.1 mM EGTA, 0.1 mM Na3VO4, 250 μM KVEKIGEGTYGVVYK (Cdc2 peptide), 10 mM MgAcetate and [γ-^33P-ATP] (specific activity approx. 500 cpm/pmol, concentration as required). The reaction is initiated by the addition of the MgATP mix. After incubation for 40 minutes at room temperature, the reaction is stopped by the addition of 5 μl of a 3% phosphoric acid solution.
as §6

For another assay, the target named is Lyn (h) (Homo sapiens, UniProt P07948). As to the kind of experiment: Kinase profiling, glass-fiber filter technology: Lyn. Particulars: test concentration of 10^−6 M; read-out: Lyn inhibition score. The method, then: as §1, §2, §3, §4
Lyn (h), sequence (P07948 whole entry): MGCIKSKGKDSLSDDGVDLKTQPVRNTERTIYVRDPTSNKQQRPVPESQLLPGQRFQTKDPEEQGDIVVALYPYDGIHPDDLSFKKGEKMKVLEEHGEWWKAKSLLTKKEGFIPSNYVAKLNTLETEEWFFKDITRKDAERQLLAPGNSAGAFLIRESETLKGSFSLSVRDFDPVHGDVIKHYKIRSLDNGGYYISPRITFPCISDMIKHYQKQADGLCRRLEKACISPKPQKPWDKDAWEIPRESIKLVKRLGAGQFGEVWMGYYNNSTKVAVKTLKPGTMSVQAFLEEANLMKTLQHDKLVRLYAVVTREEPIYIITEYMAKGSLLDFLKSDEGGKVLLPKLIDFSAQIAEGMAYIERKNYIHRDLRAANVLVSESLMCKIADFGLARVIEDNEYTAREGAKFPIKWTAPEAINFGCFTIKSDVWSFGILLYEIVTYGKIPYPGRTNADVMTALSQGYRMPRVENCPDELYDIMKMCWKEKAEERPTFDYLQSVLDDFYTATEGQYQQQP
as §7, with “Lyn” for “Lck”, “0.1% β-mercaptoethanol, 0.1 mg/ml poly(Glu, Tyr) 4:1,” for “250 μM KVEKIGEGTYGVVYK (Cdc2 peptide),”, “solution. 10 μl of the reaction is then spotted onto a Filtermat A and washed three times for 5 minutes in 75 mM phosphoric acid and once in methanol prior to drying and scintillation counting.” for “solution.”

The target of another assay is T1, Bmx (h) (Homo sapiens, UniProt P51813).
T1 sequence (P51813 1-675): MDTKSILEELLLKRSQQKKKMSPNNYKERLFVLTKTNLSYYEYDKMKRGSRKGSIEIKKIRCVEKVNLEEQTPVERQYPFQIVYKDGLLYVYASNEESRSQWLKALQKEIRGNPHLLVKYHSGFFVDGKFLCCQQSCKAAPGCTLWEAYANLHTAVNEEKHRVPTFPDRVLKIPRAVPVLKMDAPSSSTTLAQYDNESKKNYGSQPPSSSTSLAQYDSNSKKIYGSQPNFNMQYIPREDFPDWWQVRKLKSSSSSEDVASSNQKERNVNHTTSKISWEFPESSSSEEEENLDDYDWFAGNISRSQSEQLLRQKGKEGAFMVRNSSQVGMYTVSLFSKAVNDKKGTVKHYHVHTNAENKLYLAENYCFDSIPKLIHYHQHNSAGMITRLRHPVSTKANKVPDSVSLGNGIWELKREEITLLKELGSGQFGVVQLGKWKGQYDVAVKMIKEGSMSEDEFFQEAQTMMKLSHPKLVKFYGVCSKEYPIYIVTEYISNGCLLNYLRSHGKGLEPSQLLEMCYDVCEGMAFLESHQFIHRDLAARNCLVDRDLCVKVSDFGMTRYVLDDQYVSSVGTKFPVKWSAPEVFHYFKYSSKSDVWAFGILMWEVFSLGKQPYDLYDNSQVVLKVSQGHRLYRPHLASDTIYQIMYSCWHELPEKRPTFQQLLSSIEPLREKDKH
As to the kind of experiment: Kinase profiling, glass-fiber filter technology: Bmx. Particulars: test concentration of 10^−6 M; read-out: Bmx inhibition score. The method, then:
as §1, §2, §3, §4
as §5, with “Bmx” for “cSRC”, “0.1 mg/ml poly(Glu, Tyr) 4:1,” for “250 μM KVEKIGEGTYGVVYK (Cdc2 peptide),”, “[γ-33P-ATP]” for “[γ-^33P-ATP]”, “solution. 10 μl of the reaction is then spotted onto a Filtermat A and washed three times for 5 minutes in 75 mM phosphoric acid and once in methanol prior to drying and scintillation counting.” for “solution.”

For the next assay, the target named is Fyn human (Homo sapiens, UniProt P06241). Description: Kinase profiling, glass-fiber filter technology: Fyn. Conditions: test concentration of 10^−6 M; read-out: Fyn inhibition score. The method, then: as §1, §2, §3, §4
Fyn human, sequence (P06241 whole entry): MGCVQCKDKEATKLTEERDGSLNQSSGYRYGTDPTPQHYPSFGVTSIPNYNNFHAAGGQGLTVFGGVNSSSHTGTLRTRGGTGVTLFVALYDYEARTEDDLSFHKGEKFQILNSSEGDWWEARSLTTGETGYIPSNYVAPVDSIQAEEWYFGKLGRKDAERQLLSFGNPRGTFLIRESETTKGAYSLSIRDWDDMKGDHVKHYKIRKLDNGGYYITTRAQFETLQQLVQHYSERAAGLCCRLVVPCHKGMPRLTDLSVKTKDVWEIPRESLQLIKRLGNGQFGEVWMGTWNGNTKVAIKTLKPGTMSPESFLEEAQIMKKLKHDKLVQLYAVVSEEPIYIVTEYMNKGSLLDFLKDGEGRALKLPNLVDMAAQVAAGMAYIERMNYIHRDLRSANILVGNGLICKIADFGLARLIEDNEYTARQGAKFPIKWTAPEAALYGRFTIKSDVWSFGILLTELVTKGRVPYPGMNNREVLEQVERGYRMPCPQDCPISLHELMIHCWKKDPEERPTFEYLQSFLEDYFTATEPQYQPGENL
as §7, with “Fyn human” for “Lck (h)”, “solution. 10 μl of the reaction is then spotted onto a P30 filtermat and washed three times for 5 minutes in 75 mM phosphoric acid and once in methanol prior to drying and scintillation counting.” for “solution.”

cSRC (h), sequence (P12931 whole entry): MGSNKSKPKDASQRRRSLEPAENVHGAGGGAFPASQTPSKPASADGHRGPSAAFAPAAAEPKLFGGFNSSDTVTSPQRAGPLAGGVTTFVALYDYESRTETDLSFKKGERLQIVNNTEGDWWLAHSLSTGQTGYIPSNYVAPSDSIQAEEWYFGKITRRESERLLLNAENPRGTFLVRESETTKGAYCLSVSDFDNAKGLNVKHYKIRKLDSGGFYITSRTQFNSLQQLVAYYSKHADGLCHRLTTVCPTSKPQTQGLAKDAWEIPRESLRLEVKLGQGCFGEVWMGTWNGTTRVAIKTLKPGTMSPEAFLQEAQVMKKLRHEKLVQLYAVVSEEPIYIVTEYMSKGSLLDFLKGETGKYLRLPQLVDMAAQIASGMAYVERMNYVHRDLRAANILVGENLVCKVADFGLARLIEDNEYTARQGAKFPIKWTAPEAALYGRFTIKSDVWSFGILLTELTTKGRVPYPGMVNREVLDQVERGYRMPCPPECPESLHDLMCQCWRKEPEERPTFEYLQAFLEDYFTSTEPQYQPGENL

With `C#Cc1ccc2c(c1)Nc1ncnc3cc(OCCCNCCS(C)(=O)=O)c(cc13)OCCCCCN(C)C2` [Compound 20], the inhibition at 1 µM on cSRC (h) is more than 80%; at Lck (h), more than 80%; at Lyn (h) it was more than 80%; on Bmx (h) it was 60 to 80%.
Regarding `CC(=O)NCCN1CCN(CCCOc2cc3ncnc4c3cc2OCCCNC(=O)[C@H](C)N(C)Cc2cc(F)c(Cl)cc2N4)CC1` [Compound 6], the inhibition at 1 µM is more than 80% at cSRC (h); more than 80% on Fyn human; more than 80% on Lck (h); more than 80% on Lyn (h); 30 to 60% on Bmx (h).
With `COc1cc2ncnc3c2cc1OCCCN(CCCN1CCOCC1)C(=O)[C@H](CC(C)C)NC(=O)Cc1ccc(Br)cc1N3` [Int. 25], the inhibition at 1 µM on cSRC (h) fell in the range of 30 to 60%; on Fyn human it was 30 to 60%; at Lck (h) it was 60 to 80%; on Lyn (h), 60 to 80%.
In the case of `CC(=O)N(CCO)CCCOc1cc2ncnc3c2cc1OCCCNC(=O)[C@H](C)N(C)Cc1cc(F)c(Cl)cc1N3` [Compound 5], the inhibition at 1 µM at cSRC (h) is more than 80%; at Fyn human it was 60 to 80%; on Lck (h), 60 to 80%; at Lyn (h), more than 80%; at Bmx (h) it was 30 to 60%.
Regarding `CN1CCCCCOc2cc3c(ncnc3cc2OCCCNC(=O)OC(C)(C)C)Nc2cc(Br)ccc2C1` [Compound 11], the inhibition at 1 µM fell in the range of 60 to 80% at cSRC (h), 60 to 80% on Fyn human, 30 to 60% on Lyn (h) and 10 to 30% on Bmx (h).
Turning to `CC(=O)OCCN(C)CCCOc1cc2ncnc3c2cc1OCCCNC(=O)[C@H](C)N(C)Cc1cc(F)c(Cl)cc1N3` [Compound 2], the inhibition at 1 µM was more than 80% at cSRC (h), more than 80% at Fyn human, more than 80% at Lck (h) and 30 to 60% at Bmx (h).
With `CN1CCCCCOc2cc3c(ncnc3cc2OCCCN2CCS(=O)(=O)CC2)Nc2cc(Cl)c(F)cc2C1` [Compound 19], the inhibition at 1 µM was more than 80% at cSRC (h), more than 80% on Fyn human, more than 80% on Lck (h) and 60 to 80% on Bmx (h).
Turning to `COc1cc2ncnc3c2cc1OCCCN(CCN1CCOCC1)C(=O)CNC(=O)Cc1ccc(Cl)cc1N3` [Compound 15], the inhibition at 1 µM fell in the range of 30 to 60% at cSRC (h), 30 to 60% on Fyn human, 30 to 60% at Lck (h) and 60 to 80% at Lyn (h).
On to `CC(=O)NCCNCCCOc1cc2ncnc3c2cc1OCCCCCN(C)Cc1ccc(Br)cc1N3` [Compound 13], for which the inhibition at 1 µM on cSRC (h) was more than 80%; at Lck (h) it was more than 80%; at Lyn (h) it was more than 80%; on Bmx (h), 60 to 80%.
With `CN1CCCCCOc2cc3c(ncnc3cc2OC[C@@H](O)CN2CCS(=O)(=O)CC2)Nc2cc(Br)ccc2C1` [Compound 12], the inhibition at 1 µM on cSRC (h) was more than 80%; at Fyn human, more than 80%; on Lck (h) it was more than 80%; on Lyn (h), more than 80%; at Bmx (h) it was 30 to 60%.
With `CN1CCCCCOc2cc3c(ncnc3cc2OCCCNCCS(C)(=O)=O)Nc2cc(Cl)c(F)cc2C1` [Compound 18], the inhibition at 1 µM on cSRC (h) is more than 80%; on Fyn human it was more than 80%; at Lck (h) it was more than 80%; at Lyn (h) it was more than 80%; at Bmx (h) it was 30 to 60%.
Turning to `CN1CCCCCOc2cc3c(ncnc3cc2OC[C@H](O)CNCCOCCO)Nc2cc(Cl)c(F)cc2C1` [Compound 17], the inhibition at 1 µM on cSRC (h) was more than 80%; on Fyn human, more than 80%; at Lck (h) it was more than 80%; on Lyn (h), more than 80%; on Bmx (h), 60 to 80%.
Regarding `CN1CCCCCOc2cc3c(ncnc3cc2OCCCNCCS(C)(=O)=O)Nc2cc(Br)ccc2C1` [Compound 14], the inhibition at 1 µM on cSRC (h) was more than 80%; on Lck (h) it was more than 80%; at Lyn (h), more than 80%; on Bmx (h), 30 to 60%.
As for `C[C@H]1C(=O)NCCCOc2cc3c(ncnc3cc2OCCCN2CCN(C(=O)OC(C)(C)C)CC2)Nc2cc(Cl)c(F)cc2CN1C` [Int. 16], the inhibition at 1 µM at cSRC (h) is more than 80%; on Fyn human, more than 80%; at Lck (h), more than 80%; on Lyn (h), more than 80%; at Bmx (h) it was 30 to 60%.
Consider `COCCOCCOc1cc2ncnc3c2cc1OCCCCCN(C)Cc1ccc(Br)cc1N3` [Int. 43], for which the inhibition at 1 µM at cSRC (h), on Fyn human, at Lck (h) and at Lyn (h) was more than 80% in each case.
For the compound `CC(=O)NCCNCCCOc1cc2ncnc3c2cc1OCCCNC(=O)[C@H](C)N(C)Cc1cc(F)c(Cl)cc1N3` [Compound 4], the inhibition at 1 µM is more than 80% at cSRC (h), 60 to 80% on Fyn human, more than 80% at Lck (h) and 30 to 60% at Bmx (h).

These data come from patent publication US9688691B2, “Macrocyclic quinazole derivatives and their use as MTKI” (Janssen Pharmaceutica NV, priority 2004, dated 2017).
